Test results reported in article PMC9329436, “Optimization of the 4-anilinoquin(az)oline scaffold as epidermal growth factor receptor (EGFR) inhibitors for chordoma utilizing a toxicology profiling assay platform” (Scientific Reports, 2022).
Read-outs that look alike come from different tables or passages of the source.

Tests used:
Type in all cases: biochemical
[1] = target: 320 wild-type protein kinases (Homo sapiens, UniProt P24941); details: singlicate
Excerpt: (§1) Table S4. Profiling of two compounds at two concentrations against 320 wild-type protein kinases; singlicate measurement; Residual activities (% of control).

[2] = target: T1, 320 wild-type protein kinases (Homo sapiens, UniProt Q92630); details: singlicate
T1 sequence (Q92630 1-601): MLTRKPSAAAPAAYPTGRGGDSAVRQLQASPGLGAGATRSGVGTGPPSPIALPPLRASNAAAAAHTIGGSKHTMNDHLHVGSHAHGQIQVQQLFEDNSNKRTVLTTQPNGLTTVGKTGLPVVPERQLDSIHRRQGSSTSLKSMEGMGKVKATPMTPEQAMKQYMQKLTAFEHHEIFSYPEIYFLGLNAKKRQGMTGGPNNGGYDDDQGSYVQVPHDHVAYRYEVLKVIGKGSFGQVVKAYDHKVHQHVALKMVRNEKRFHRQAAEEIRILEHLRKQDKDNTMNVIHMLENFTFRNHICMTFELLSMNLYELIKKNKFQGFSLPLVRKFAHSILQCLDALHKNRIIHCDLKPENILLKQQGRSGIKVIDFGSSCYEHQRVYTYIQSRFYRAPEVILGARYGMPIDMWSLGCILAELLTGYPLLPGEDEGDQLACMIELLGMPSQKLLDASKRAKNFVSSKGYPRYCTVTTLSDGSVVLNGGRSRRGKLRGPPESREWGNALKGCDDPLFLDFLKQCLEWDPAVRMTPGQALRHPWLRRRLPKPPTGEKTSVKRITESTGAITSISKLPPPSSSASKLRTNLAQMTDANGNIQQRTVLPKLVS
Excerpt: as §1

[3] = target: 320 wild-type protein kinases (Homo sapiens, UniProt Q9Y2K2); details: kinase SIK3, singlicate
Sequence of 320 wild-type protein kinases (Homo sapiens, UniProt Q9Y2K2) (Q9Y2K2 whole entry): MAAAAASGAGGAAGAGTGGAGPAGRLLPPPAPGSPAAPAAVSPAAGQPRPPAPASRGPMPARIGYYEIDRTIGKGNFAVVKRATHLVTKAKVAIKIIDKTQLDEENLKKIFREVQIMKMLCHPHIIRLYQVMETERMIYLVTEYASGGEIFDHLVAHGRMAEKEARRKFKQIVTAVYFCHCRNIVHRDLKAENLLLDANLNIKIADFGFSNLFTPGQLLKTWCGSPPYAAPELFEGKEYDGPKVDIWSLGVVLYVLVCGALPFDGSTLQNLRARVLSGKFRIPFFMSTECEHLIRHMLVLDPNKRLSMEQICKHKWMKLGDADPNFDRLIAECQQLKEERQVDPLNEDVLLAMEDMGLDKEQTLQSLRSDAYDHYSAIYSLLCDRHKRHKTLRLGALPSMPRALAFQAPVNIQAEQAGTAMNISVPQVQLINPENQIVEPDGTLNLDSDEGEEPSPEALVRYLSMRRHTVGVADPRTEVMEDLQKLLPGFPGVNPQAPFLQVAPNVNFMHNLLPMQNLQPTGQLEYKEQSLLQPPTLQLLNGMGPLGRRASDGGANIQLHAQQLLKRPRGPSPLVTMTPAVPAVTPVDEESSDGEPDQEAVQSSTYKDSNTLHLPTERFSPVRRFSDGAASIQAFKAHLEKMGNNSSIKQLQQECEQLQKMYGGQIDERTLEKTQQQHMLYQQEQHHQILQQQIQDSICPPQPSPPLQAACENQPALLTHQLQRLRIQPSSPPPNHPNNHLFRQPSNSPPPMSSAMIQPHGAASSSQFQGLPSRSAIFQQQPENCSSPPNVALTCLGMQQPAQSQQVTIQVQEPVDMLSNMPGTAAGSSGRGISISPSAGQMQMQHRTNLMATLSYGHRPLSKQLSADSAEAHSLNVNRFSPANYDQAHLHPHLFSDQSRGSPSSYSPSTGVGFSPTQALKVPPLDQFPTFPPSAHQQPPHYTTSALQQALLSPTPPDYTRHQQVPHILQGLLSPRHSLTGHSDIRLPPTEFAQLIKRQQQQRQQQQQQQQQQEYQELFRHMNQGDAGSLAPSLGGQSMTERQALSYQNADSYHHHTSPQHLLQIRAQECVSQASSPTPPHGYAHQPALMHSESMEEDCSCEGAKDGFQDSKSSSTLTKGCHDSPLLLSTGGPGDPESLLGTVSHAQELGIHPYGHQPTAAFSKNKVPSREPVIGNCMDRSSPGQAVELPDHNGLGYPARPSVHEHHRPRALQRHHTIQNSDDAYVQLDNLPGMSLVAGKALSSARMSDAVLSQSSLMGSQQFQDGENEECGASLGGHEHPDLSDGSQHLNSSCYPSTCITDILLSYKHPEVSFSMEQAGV
Excerpt: as §1

[4] = target: 320 wild-type protein kinases (Homo sapiens, UniProt P32298); details: singlicate
Sequence of 320 wild-type protein kinases (Homo sapiens, UniProt P32298) (P32298 whole entry): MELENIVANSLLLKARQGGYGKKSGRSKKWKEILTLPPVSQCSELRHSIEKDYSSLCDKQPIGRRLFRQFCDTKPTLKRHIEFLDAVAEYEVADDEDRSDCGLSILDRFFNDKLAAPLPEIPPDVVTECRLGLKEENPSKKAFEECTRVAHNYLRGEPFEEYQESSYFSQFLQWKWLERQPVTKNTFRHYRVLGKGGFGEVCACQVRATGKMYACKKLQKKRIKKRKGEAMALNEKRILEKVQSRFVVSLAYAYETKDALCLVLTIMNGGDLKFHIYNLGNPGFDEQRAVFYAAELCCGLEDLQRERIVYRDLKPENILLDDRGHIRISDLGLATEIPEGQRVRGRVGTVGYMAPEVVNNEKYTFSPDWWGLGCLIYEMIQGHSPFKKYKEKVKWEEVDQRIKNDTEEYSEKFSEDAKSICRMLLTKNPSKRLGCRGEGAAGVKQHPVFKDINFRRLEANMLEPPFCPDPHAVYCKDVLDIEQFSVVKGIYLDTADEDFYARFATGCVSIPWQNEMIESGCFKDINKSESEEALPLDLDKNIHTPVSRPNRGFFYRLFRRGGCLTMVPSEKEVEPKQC
Excerpt: as §1

[5] = target: T2, 320 wild-type protein kinases (Homo sapiens, UniProt P54753); details: singlicate
T2 sequence (P54753 34-998): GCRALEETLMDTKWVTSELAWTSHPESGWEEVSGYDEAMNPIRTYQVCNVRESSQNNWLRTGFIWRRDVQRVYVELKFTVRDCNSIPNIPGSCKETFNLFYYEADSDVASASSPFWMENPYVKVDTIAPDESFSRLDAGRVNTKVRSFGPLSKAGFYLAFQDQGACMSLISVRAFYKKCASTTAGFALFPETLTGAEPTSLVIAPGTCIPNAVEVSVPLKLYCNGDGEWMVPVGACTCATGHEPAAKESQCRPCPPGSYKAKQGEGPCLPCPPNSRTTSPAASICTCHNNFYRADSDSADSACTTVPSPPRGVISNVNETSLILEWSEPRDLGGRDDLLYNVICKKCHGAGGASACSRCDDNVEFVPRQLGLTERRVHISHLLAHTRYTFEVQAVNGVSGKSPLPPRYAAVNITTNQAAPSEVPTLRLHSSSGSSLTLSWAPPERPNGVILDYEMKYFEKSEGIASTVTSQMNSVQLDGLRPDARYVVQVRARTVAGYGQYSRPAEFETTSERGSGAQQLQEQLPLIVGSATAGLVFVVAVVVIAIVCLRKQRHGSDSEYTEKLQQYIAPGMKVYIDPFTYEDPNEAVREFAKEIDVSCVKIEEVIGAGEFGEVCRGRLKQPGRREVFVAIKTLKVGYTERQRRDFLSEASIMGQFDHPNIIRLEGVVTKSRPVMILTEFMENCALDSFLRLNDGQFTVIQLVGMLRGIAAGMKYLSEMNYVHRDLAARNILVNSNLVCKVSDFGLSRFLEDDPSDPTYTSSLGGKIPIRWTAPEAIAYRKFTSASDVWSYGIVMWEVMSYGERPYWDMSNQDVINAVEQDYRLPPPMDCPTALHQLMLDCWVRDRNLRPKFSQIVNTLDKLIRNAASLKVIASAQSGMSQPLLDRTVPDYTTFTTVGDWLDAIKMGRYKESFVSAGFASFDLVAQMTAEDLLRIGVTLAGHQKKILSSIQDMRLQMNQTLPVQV
Excerpt: as §1

[6] = target: 320 wild-type protein kinases (Homo sapiens, UniProt Q00536); details: CDK16/CycY, singlicate
Sequence of 320 wild-type protein kinases (Homo sapiens, UniProt Q00536) (Q00536 whole entry): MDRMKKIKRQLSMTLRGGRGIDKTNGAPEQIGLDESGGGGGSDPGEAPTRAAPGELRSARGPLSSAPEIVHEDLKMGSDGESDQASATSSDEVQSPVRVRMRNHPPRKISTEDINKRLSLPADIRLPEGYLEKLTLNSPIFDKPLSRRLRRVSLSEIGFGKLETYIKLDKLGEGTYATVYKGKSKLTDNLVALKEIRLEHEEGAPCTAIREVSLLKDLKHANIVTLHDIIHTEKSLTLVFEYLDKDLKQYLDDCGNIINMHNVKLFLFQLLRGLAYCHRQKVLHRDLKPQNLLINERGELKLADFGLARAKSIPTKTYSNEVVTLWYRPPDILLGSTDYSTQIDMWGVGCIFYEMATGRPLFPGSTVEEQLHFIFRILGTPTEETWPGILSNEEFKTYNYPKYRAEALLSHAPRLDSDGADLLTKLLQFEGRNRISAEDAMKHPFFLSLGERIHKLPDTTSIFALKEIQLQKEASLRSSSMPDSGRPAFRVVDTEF
Excerpt: as §1

[7] = target: 320 wild-type protein kinases (Homo sapiens, UniProt O75116); details: kinase ROCK2, singlicate
Sequence of 320 wild-type protein kinases (Homo sapiens, UniProt O75116) (O75116 whole entry): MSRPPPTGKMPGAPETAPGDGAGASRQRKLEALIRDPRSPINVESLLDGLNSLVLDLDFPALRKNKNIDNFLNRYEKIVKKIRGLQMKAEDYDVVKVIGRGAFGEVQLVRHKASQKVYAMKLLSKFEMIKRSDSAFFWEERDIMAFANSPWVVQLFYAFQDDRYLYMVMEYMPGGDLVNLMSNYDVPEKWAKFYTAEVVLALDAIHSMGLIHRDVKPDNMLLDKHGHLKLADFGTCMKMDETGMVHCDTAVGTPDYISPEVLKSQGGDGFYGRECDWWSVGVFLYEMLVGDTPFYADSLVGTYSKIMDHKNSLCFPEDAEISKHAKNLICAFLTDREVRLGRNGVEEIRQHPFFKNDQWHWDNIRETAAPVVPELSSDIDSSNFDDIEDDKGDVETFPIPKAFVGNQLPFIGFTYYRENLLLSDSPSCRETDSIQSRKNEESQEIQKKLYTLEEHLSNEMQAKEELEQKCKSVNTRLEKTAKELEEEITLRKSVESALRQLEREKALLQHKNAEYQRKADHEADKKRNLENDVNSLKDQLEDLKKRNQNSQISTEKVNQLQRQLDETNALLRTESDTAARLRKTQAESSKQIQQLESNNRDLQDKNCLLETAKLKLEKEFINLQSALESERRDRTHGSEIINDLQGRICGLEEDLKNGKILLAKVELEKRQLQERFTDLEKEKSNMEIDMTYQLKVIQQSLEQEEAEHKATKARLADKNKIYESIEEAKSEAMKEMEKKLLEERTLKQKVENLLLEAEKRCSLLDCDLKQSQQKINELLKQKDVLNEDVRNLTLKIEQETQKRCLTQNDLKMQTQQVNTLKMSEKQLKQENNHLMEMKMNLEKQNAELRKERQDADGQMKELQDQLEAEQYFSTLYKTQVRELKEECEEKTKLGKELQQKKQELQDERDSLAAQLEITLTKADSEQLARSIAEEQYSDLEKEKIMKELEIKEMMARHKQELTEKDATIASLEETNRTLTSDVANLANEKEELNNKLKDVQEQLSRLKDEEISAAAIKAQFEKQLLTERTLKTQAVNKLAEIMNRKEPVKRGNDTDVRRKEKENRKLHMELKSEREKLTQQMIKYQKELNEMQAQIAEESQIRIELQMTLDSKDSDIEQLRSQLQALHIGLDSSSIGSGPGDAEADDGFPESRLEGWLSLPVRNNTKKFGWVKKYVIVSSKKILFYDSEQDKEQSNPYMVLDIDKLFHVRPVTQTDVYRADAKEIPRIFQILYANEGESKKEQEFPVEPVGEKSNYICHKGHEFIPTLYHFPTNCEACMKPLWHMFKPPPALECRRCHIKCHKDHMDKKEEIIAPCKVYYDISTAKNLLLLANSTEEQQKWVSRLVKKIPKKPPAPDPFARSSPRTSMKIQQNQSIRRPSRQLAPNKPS
Excerpt: as §1

[8] = target: T3, 320 wild-type protein kinases (Homo sapiens, UniProt Q09013); details: DMPK, singlicate
T3 sequence (Q09013 1-629): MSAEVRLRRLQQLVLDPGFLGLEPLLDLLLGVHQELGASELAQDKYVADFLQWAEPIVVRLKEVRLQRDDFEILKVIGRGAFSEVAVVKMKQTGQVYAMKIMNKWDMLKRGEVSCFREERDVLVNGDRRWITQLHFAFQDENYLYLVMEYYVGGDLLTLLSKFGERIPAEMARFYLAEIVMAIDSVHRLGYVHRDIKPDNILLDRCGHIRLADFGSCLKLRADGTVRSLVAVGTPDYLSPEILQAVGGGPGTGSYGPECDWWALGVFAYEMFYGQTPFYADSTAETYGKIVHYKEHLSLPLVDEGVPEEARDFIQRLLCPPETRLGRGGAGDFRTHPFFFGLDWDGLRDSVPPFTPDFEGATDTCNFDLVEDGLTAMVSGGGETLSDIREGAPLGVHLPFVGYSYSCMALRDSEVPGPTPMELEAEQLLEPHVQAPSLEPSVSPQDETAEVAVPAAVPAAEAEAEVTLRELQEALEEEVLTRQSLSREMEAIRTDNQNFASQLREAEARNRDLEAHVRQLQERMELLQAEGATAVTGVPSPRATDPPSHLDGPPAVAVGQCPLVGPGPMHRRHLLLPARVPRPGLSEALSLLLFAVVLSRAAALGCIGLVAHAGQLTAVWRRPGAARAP
Excerpt: as §1

Structure (SMILES) | Residual activity ([1]; CDK2/CycA2, 1.0E-06 M) | Residual activity ([1]; CDK2/CycA2, 1.0E-07 M) | Residual activity ([1]; CDK2/CycE1, 1.0E-06 M) | Residual activity ([1]; CDK2/CycE1, 1.0E-07 M) | Residual activity ([2]; DYRK2, 1.0E-06 M) | Residual activity ([2]; DYRK2, 1.0E-07 M) | Residual activity, SIK3 ([3]; assay conc. 1.0E-06 M) | Residual activity, SIK3 ([3]; assay conc. 1.0E-07 M) | Residual activity ([4]; GRK4, 1.0E-06 M) | Residual activity ([4]; GRK4, 1.0E-07 M) | Residual activity ([5]; EPHB3, 1.0E-06 M) | Residual activity ([5]; EPHB3, 1.0E-07 M) | Residual activity ([6]; 1.0E-06 M) | Residual activity ([6]; 1.0E-07 M) | Residual activity, ROCK2 ([7]; assay conc. 1.0E-06 M) | Residual activity, ROCK2 ([7]; assay conc. 1.0E-07 M) | Residual activity ([8]; 1.0E-06 M) | Residual activity ([8]; 1.0E-07 M)
C#Cc1cc(Nc2ncnc3cc(I)ccc23)ccc1Cl [Compound 41] | 90 % of control | 88 % of control | 76 % of control | 97 % of control | 61 % of control | 84 % of control | 72 % of control | 77 % of control | 113 % of control | 128 % of control | 100 % of control | 110 % of control | 84 % of control | 84 % of control | 88 % of control | 100 % of control | 106 % of control | 121 % of control
C#Cc1cc(Nc2ncnc3cc(OC)c(OC)cc23)ccc1Cl [Compound 45] | 97 % of control | 95 % of control | 86 % of control | 91 % of control | 71 % of control | 89 % of control | 58 % of control | 83 % of control | 126 % of control | 121 % of control | 113 % of control | 99 % of control | 90 % of control | 86 % of control | 84 % of control | 90 % of control | 104 % of control | 103 % of control
